# In patent US11058703B2, “Application of triacetyl-3-hydroxyphenyladenosine in preparation of pharmaceutical drug for preventing or treating non-alcoholic fatty liver disease” (priority 2015, dated 2021):
# Experiments:
# [1] = test system: golden hamster with non-alcoholic fatty liver disease induced by high-fat diet; test: Body weight and liver coefficient of golden hamster with non-alcoholic fatty liver disease induced by high-fat diet; assay type: in vivo, Syrian golden hamster; settings: n = 10, mean ± standard error
# Procedure: The animals were fasted overnight before the end of the experiment, anesthetized by intraperitoneal injection of 3% pentobarbital sodium, the abdominal cavity was exposed, and the liver was rapidly separated after blood was taken from the aorta abdominalis. One liver lobe was preserved, and two pieces of 1×1 cm^3 pieces were cut at a fixed site, one piece was embedded in OCT, quickly frozen in liquid nitrogen, and stored in liquid nitrogen or at −80° C.; and the other piece was placed in a 4% paraformaldehyde stationary liquid and stored at 4° C.
# [2] = test system: golden hamster with non-alcoholic fatty liver disease induced by high-fat diet; test: Serum lipid indexes of golden hamster with non-alcoholic fatty liver disease induced by high-fat diet; assay type: in vivo, Syrian golden hamster; settings: n = 10; for LDL-C: calculated LDL=TC-HDL-0.2TG
# Procedure: (§1) After 5 days of adaptive feeding, animals were randomly divided into a normal control group (n=15), a high-fat diet group (n=15), an IMMH007 low-dose group (25 mg/kg, n=15), an IMMH007 medium-dose group (50 mg/kg, n=15), and an IMMH007 high-dose group (100 mg/kg, n=15), and given intragastric administration twice daily.
# (§2) The animals were fasted for 12 hours, and 0.5 ml blood was collected from the angular vein and allowed to stand for 60 min, and centrifuged at 6000 g for 10 min, and the supernatant was aspirated as much as possible, and then centrifuged at 6000 g for 10 min. The absorbance values were measured according to the instructions of the total cholesterol (TC), triglycerides (TG), aspartate aminotransferase (AST), and alanine aminotransferase (ALT) kits, and the concentration of each index was calculated. 50 ul serum was mixed with 50 ul PEG6000 in a ratio of 1:1, vortexed uniformly, allowed to stand for 10 min, and centrifuged at 1900 g for 20 min at room temperature, and the supernatant was carefully pipetted, stored at 4° C., and measured for high density lipoprotein cholesterol (HDL-C) according to the instructions of the total cholesterol (TC) kit. The plasma low density lipoprotein (LDL) level was calculated by subtracting HDL-C and 0.2-fold TG levels from plasma total cholesterol TC, ie, LDL=TC-HLD-0.2TG.
# [3] = test system: golden hamster with non-alcoholic fatty liver disease induced by high-fat diet; test: Lipid content in liver tissue of golden hamster with non-alcoholic fatty liver disease induced by high-fat diet; assay type: in vivo, Syrian golden hamster; settings: n = 10
# Procedure: 100 mg liver tissue was accurately weighed, and added with a triglyceride detection lysate, the tissue was homogenized by a homogenizer in an ice bath to no significant tissue mass, placed on ice for 5 min, transferred to a 1.5 ml centrifuge tube, and centrifuged at 14000 g for 10 min at 4° C., the supernatant was transferred and a portion of the supernatant was taken for protein quantification, and detected for its lipid content according to the instructions of the TC and TG detection kits.
# [4] = test system: golden hamster with non-alcoholic fatty liver disease induced by high-fat diet; settings: in vivo
# Procedure: as §1, §2
# [5] = test system: golden hamster with non-alcoholic fatty liver disease induced by high-fat diet; test: Liver function (serum ALT, AST) of golden hamster with non-alcoholic fatty liver disease induced by high-fat diet; settings: n = 10; for GPT: serum ALT; for GOT: serum AST
# Procedure: as §1, §2
compound,measurement,setting,value
"CC(=O)OCC1OC(n2cnc3c(Nc4cccc(O)c4)ncnc32)C(OC(C)=O)C1OC(C)=O (stereo not shown) [IMM-H007, triacetyl-3-hydroxyphenyladenosine]",Body Weight,[1]; IMM-H007 50 mg/kg,170 ± 11
same,Liver Organ Coefficient,[1]; IMM-H007 50 mg/kg,0.0313 ± 0.002
same,Liver Organ Coefficient,[1]; IMM-H007 100 mg/kg,0.0291 ± 0.003
same,Body Weight,"[1]; IMM-H007 100 mg/kg, in g (unit assumed)",177 ± 9
same,Body Weight,[1]; IMM-H007 200 mg/kg,166 ± 12
same,Liver Organ Coefficient,[1]; IMM-H007 200 mg/kg,0.0298 ± 0.002
same,FFA,[2]; IMM-H007 50 mg/kg,2324.6 ± 783.4 μEq/L
same,HDL-C,[2]; IMM-H007 50 mg/kg,2.8 ± 0.4 mmol/L
same,TC,[2]; IMM-H007 50 mg/kg,7.9 ± 1.0 mmol/L
same,TG,[2]; IMM-H007 50 mg/kg,4.7 ± 1.9 mmol/L
same,FFA,[2]; IMM-H007 100 mg/kg,1889.5 ± 386.5 μEq/L
same,HDL-C,[2]; IMM-H007 100 mg/kg,2.8 ± 0.2 mmol/L
same,TC,[2]; IMM-H007 100 mg/kg,7.0 ± 1.0 mmol/L
same,TG,[2]; IMM-H007 100 mg/kg,4.3 ± 1.4 mmol/L
same,FFA,[2]; IMM-H007 200 mg/kg,1497.6 ± 326.2 μEq/L
same,HDL-C,[2]; IMM-H007 200 mg/kg,2.6 ± 0.5 mmol/L
same,TC,[2]; IMM-H007 200 mg/kg,6.7 ± 1.0 mmol/L
same,TG,[2]; IMM-H007 200 mg/kg,2.7 ± 0.8 mmol/L
same,LDL-C,[2]; IMM-H007 50 mg/kg,4.1 ± 1.2 mmol/L
same,LDL-C,[2]; IMM-H007 100 mg/kg,4.0 ± 0.7 mmol/L
same,LDL-C,[2]; IMM-H007 200 mg/kg,3.3 ± 0.5 mmol/L
same,TC,[3]; IMM-H007 50 mg/kg,2.8 ± 0.8 µmol/g protein
same,TG,[3]; IMM-H007 50 mg/kg,3.6 ± 0.1 µmol/g protein
same,TC,[3]; IMM-H007 100 mg/kg,2.4 ± 0.4 µmol/g protein
same,TG,[3]; IMM-H007 100 mg/kg,3.3 ± 0.1 µmol/g protein
same,TC,[3]; IMM-H007 200 mg/kg,1.8 ± 0.8 µmol/g protein
same,TG,[3]; IMM-H007 200 mg/kg,2.8 ± 0.1 µmol/g protein
same,Effect on the liver as concluded from serum ALT and AST,[4],good hepatic protective effect
same,GPT,[5]; IMM-H007 50 mg/kg,21.1 ± 5.2 U/L
same,GPT,[5]; IMM-H007 100 mg/kg,20.9 ± 8.0 U/L
same,GPT,[5]; IMM-H007 200 mg/kg,12.4 ± 3.1 U/L
same,GOT,[5]; IMM-H007 50 mg/kg,9.4 ± 1.7 U/L
same,GOT,[5]; IMM-H007 100 mg/kg,8.4 ± 2.3 U/L
same,GOT,[5]; IMM-H007 200 mg/kg,7.2 ± 2.1 U/L
